Measurements: patent US20120124703A1, “NOVEL COPRINUS COMATUS AND TREMELLA MESENTERICA MUSHROOM STRAINS, PRODUCTS AND EXTRACTS THEREOF AND COMPOSITIONS COMPRISING THEM” (PALMED TEVA LTD, priority 2009, published 2012)
Where two headings read alike, the source gives them in different places. Marks after values point to notes of the source that are not given here. Each block holds one compound with its values, some of them ahead of it. *1 amine or outer side, *2 acyl side, *3 side chain or, on linkers, in order; H or OH if unused. Where a SMILES comes first, the peptide text is derived from it. Bridges are numbered along the chain shown (N, C = ends). Roman numbers before positions name the chains, in order. [ ]: non-standard residue; d: D form. Actinocin(9to1) = Cc1c2oc3c(C)ccc(C(=O)[*:1])c3nc-2c(C(=O)[*:2])c(N)c1=O; NMeV = CN[C@H](C(=O)O)C(C)C; Sar = CNCC(=O)O

Key:
[1] = test system: Tobacco mosaic virus (TMV), strain U1; test: Influence of actinomycin D on GXM-induced resistance to TMV; assay type: in vivo, Nicotiana tabacum, variety Immune 580; conditions: FIG. 14
Experimental: Abscissa: variants of the experiment: 1—GXM; 2—mixture of GXM and AMD (10 μg/mL); 3—AMD (10 μg/mL) introduced 2 days after GXM; 4—AMD (20 μg/mL) introduced 2 days after GXM; 5—AMD (10 μg/mL). Ordinate: the ratio (%) of the quantity of local lesions in the experiment (dark solid bars) and in control (textured light bars).
When studying the GXM-induced mechanism of plant resistance, we used actinomycin D (AMD) inhibiting the DNA-dependent synthesis of mRNA by blocking RNA-polymerases. Solutions of AMD at the concentrations of 10 and 20 μg/mL and rhamnolipide (RL)−1 mg/mL, which were subepidermally introduced simultaneously or via definite periods of time after the GXM.

[2] = test system: Coprinus comatus lectin; test: Sugar-binding specificity: inhibition of lectin-induced hemagglutination by carbohydrates; assay type: biochemical; conditions: for Inhibition of lectin hemagglutinating activity by sugar: Coprinus comatus biomass lectin
Experimental: Sugar-binding specificity of lectins. The investigation of inhibition of lectin-induced hemagglutination by various carbohydrates was performed in a manner analogous to the hemagglutination test. Sugar samples (0.3 M) were prepared in phosphate buffered saline. All of the dilutions were mixed with an equal volume (25 μL) of a solution of the lectin. The mixture was allowed to stand for 30 min at room temperature and then mixed with 50 μL of 2% rabbit erythrocyte suspension. Sugar-binding specificity was expressed as the minimum concentration of each sugar required for inhibition of hemagglutination of titer 4 of the lectin. N-Acetyl-D-galactosamine (GalNAc); N-Acetyl-D-glucosamine (GlcNAc), D(+)Galactose (Gal); D(+)Glucose, D(+)Lactose (Lac); D(+)Mannose, xylose, cellobiose, and dulcitol were tested for detection of sugar-binding specificity of lectins.

[3] = test system: IκBα phosphorylation; test: pIκBα level in H2O2-stimulated MCF7 cells, Western immunoblot; assay type: cell-based
Experimental: Cell Lysis, Preparation of Total Cell Lysates. In order to measure the intracellular levels of certain proteins as a response to the crude fungal extracttreatments, each time after cells were collected, a total cell lysis was performed. The exact procedure of the total cell lysis is described below.
Cells were collected and washed 3 times with cold phosphate buffered saline (PBS) through centrifugation for 5 min, at 3,000 rpm, and 4° C. The final cell amounts were collected in Eppendorf tubes and the left over PBS from the last washing was discarded so that only the cell pellet was left in each tube. For cell lysis, each time a freshly prepared lysis buffer was used with the following content: 500-1000 μL, depending on the number of samples, of cell lysis reagent, protease inhibitor cocktail, and both phosphatase inhibitor cocktails 1 and 2 at the final concentration of 1%, and 0.3 M of phenylmethylsulfonyl fluoride (PMSF). […]
As a control, no H2O2 treatment was used, according to which the kinetics of pIκBα were determined. […]
Densitometric Analysis. Densitometric quantitative analyses of the protein bands, detected by Western blot, have been carried out using the TotalLab software and are presented as folds of the volumes of protein bands. […]

[4] = test system: interferon (IFN); test: IFN level in blood plasma of mice after per os biomass; assay type: in vivo; conditions: dose 50 mg/animal
[5] = test system: Tobacco mosaic virus (TMV), strain U1; test: Induction of resistance against TMV infection in Datura; assay type: in vivo; conditions: Datura stramonium
Experimental: (§1) Virus: Tobacco mosaic virus (TMV), strain U1;
(§2) Plants: Tobacco (Nicotiana tabacum L.) variety Immune 580 and Datura stramonium L., cultivated in a hothouse under conditions of natural lighting, humidity, and temperature. Plants at a stage of 4-6 leaves were used in the experiment.
(§3) Investigations of induced properties of GXM were carried out on the tobacco and datura plants. […] The two halves of leaves were inoculated by TMV (1-5 μg/mL). The degree of AVR was taken into account by the formula mentioned above.

[6] = test system: Tobacco mosaic virus (TMV), strain U1; assay type: in vivo; conditions: Datura stramonium
From the text: as §1, §2
Polysaccharides, extracted from culture liquid of Tremella mesenterica were employed in this study using the method of Kovalenko with some modifications. To isolate acid glucuronoxylomannan (GXM) from neutral polysaccharides, we applied its sedimentation from a water solution with acetone (1:1) in the presence of 0.05 M CaCl2. Gas chromatography was carried out on Sephadex G-50 (2.5×80 cm) in pyridinium-acetate buffer, pH 4.5 (4 mL pyridine and 10 mL AcOH in 1 L water) and the eluate was monitored by refractive index detector.
In in vitro experiments the water solutions of the total preparation, neutral polysaccharide preparations, and pure GXM at concentrations of 10, 100, 500, and 1000 μg/mL were added to a suspension of TMV (10 μg/mL). After incubation over the 30 min the left halves of datura's leaves were inoculated with this mixture. The right halves of leaves were inoculated with TMV at the same concentration without polysaccharides. The degree of inhibition of viral infection, or VIR, was counted (in percentage) according to the number of local lesions on the experimental and control halves of the leaves by the following formula: I=((K−D)/K) 100%, where I—is a degree of virus inhibition or level of AVR, %; K—is the number (size) of local lesions in the control; D—is the number (size) of local lesions in the experiment.

[7] = test system: Tobacco mosaic virus (TMV), strain U1; test: Induction of resistance against TMV infection in tobacco; assay type: in vivo, Nicotiana tabacum, variety Immune 580; conditions: for Level of induced resistance, % / Number of local lesions per leaf, Experiment: Nicotiana tabacum Immune 580; for Level of resistance: GXM 1000 μg/mL, FIG. 11
From the text: Abscissa: interval between introduction of GXM and inoculation of TMV (days). Ordinate: the ratio (%) of the number of local lesions in the experiment (dark solid bars) and in control (textured light bars).
Abscissa: interval between introduction of GXM and inoculation of TMV (days). Ordinate: size of local lesions (mm) in the experiment (dark solid bars) and in control (textured light bars).
as §1, §2, §3

Compound: Cc1c2oc3c(C)ccc(C(=O)N[C@@H]4C(=O)N[C@H](C(C)C)C(=O)N5CCC[C@H]5C(=O)N(C)CC(=O)N(C)[C@@H](C(C)C)C(=O)O[C@@H]4C)c3nc-2c(C(=O)N[C@@H]2C(=O)N[C@H](C(C)C)C(=O)N3CCC[C@H]3C(=O)N(C)CC(=O)N(C)[C@@H](C(C)C)C(=O)O[C@@H]2C)c(N)c1=O [AMD, actinomycin D] (I: T[dV]P[Sar][NMeV] / II: T[dV]P[Sar][NMeV]; ester I:1-I:C, II:1-II:C; linker I:N-II:N via Actinocin(9to1))
Inhibition of development of GXM-induced AVR ([1]; AMD 10 μg/mL): completely
Inhibition of development of GXM-induced AVR ([1]; AMD 20 μg/mL): partly

Compound: OC[C@H]1O[C@@H](O[C@H]2[C@H](O)[C@@H](O)C(O)O[C@@H]2CO)[C@H](O)[C@@H](O)[C@H]1O (stereo partly drawn) [Lactose, D(+)Lactose]
MIC of saccharides ([2]; lactose, minimal concentration inhibiting hemagglutination): 780 µM

Compound: COc1cc(/C=C/C(=O)CC(=O)/C=C/c2ccc(O)c(OC)c2)ccc1O [curcumin]
pIκBα level ([3]; 10 μM, 100 μM H2O2, preliminary data): significantly inhibited
Effect on IκBα phosphorylation ([3]; MCF7, 10 min 100 μM H2O2, FIG. 2): high phospho-IkBα inhibitory effect

Compound: Poly I:C
IFN titre ([4]; 6 hours): 320 units/ml
IFN titre ([4]; 24 hours): 40 units/ml
IFN titre ([4]; 48 hours): <20 units/ml

Compound: glucuronoxylomannan [GXM]
Level of induced resistance, % ([5]; 100 μg/mL): 110%
Number of local lesions per leaf, Experiment ([5]; 100 μg/mL): 71.2
Level of induced resistance, % ([5]; 500 μg/mL): 90%
Number of local lesions per leaf, Experiment ([5]; 500 μg/mL): 90.0
Level of induced resistance, % ([5]; 1000 μg/mL): 14* %
Number of local lesions per leaf, Experiment ([5]; 1000 μg/mL): 119.9
Level of induced resistance, % ([5]; 2000 μg/mL): 33** %
Number of local lesions per leaf, Experiment ([5]; 2000 μg/mL): 119.6
Number of local lesions per leaf, Experiment ([6]; 10 μg/mL): 26.5
Inhibition, % ([6]; 100 μg/mL): 16* %
Number of local lesions per leaf, Experiment ([6]; 100 μg/mL): 4.5
Number of local lesions per leaf, Experiment ([6]; 1000 μg/mL): 1.3
Level of induced resistance, % ([7]; 100 μg/mL): 20%
Number of local lesions per leaf, Experiment ([7]; 100 μg/mL): 98.1
Level of induced resistance, % ([7]; 500 μg/mL): 20%
Number of local lesions per leaf, Experiment ([7]; 500 μg/mL): 102.7
Level of induced resistance, % ([7]; 1000 μg/mL): 17* %
Number of local lesions per leaf, Experiment ([7]; 1000 μg/mL): 128.5
Size of local lesions, experiment vs control ([7]; 1000 μg/mL, tobacco): reliable differences were not observed
Level of induced resistance, % ([7]; 2000 μg/mL): 52** %
Number of local lesions per leaf, Experiment ([7]; 2000 μg/mL): 63.4
Growth (size) of TMV local lesions ([7]; 2500 μg/mL, tobacco, FIG. 13): intensifies the growth of viral lesions
Development of AVR relative to TMV ([7]; 1000 and 2500 μg/mL, first day after the inducer, tobacco): induces the development of AVR
Level of resistance ([7]; 5th day after the inducer, tobacco): 30%
Level of resistance ([7]; 7th day after the inducer, tobacco): 20%

More lines, now with the values ahead:

Inhibition of lectin hemagglutinating activity by sugar [2]: did not inhibit
Compound: O=C[C@H](O)[C@@H](O)[C@H](O[C@@H]1O[C@H](CO)[C@@H](O)[C@H](O)[C@H]1O)[C@H](O)CO [cellobiose]

Inhibition of lectin hemagglutinating activity by sugar [2]: did not inhibit
Compound: OC[C@@H](O)[C@H](O)[C@H](O)[C@@H](O)CO [dulcitol]

Inhibition of lectin hemagglutinating activity by sugar [2]: did not inhibit
Compound: O=C[C@H](O)[C@@H](O)[C@H](O)CO [xylose]
